The nature of data set [1]: Lyophilisation solubility assay (LYSA). The data set is classed as physicochemical. The conditions noted are these: thermodynamic from solid.
Another data set deals with S. aureus (ATCC29213). The data set is described as follows: 50% growth inhibitory concentration (IC50) determination assay, S. aureus. The data set is classed as cell-based. The conditions noted are these: Staphylococcus aureus, growth inhibition, Iso-Sensitest broth, OD 600 nm over 16h, <0.098 = the detection limit. As for the experimental part: (§1) The in vitro antimicrobial activity of the compounds against S. aureus (ATCC29213), K. pneumoniae (ATCC10031), and A. baumannii (ATCC17978), was determined according to the following procedure: The assay used a 10-points Iso-Sensitest broth medium to measure quantitatively the in vitro activity of the compounds against S. aureus ATCC29213, K. pneumoniae ATCC 10031, and A. baumannii ATCC17978. Stock compounds in DMSO were serially two-fold diluted (range from 50 to 0.097 μM final concentration) in 384 wells microtiter plates and inoculated with 49 μL the bacterial suspension in Iso-Sensitest broth medium to have a final cell concentration of ˜5×10^5 CFU/mL in a final volume/well of 50 μL/well. Microtiter plates were incubated at 35±2° C. Bacterial cell growth was determined with the measurement of optical density at λ=600 nm each 20 minutes over a time course of 16h. Growth inhibition was calculated during the logarithmic growth of the bacterial cells with determination of the concentration inhibiting 50% (IC50) of the growth. Compounds of the present invention were tested for their concentration inhibiting 50% (IC50). The data of IC50 over S. aureus (ATCC29213), K. pneumoniae (ATCC10031), and A. baumannii (ATCC17978) are illustrated in Table 4.

Data set [2] has as its system K. pneumoniae (ATCC10031). The data set is described as follows: 50% growth inhibitory concentration (IC50) determination assay, K. pneumoniae. The data set is classed as cell-based. Conditions: Klebsiella pneumoniae, growth inhibition, Iso-Sensitest broth, OD 600 nm over 16h, <0.098 = the detection limit. As for the experimental part:
as §1

A further data set relates to A. baumannii (ATCC17978). Nature of the data set: 50% growth inhibitory concentration (IC50) determination assay, A. baumannii. In kind it is cell-based. The conditions noted are these: Acinetobacter baumannii, growth inhibition, Iso-Sensitest broth, OD 600 nm over 16h, <0.098 = the detection limit. As for the experimental part: as §1
The mark [3] stands for this setting: aqueous buffer, 0.05 M phosphate buffer, pH 6.5, HPLC-UV, <1.0 = the detection limit, read-out: Lysa.

Structures are written as SMILES. In brackets after ≈: the same amount, converted by molar mass. Like-named read-outs stand apart in the source and are kept apart here. A value given as a limit tells only on which side of the number the result lay.

Broadly, the IC50 is the midpoint of a concentration-inhibition curve.

Regarding `CNc1cc(F)cc2c1[nH]c1ncc(-c3cnc(OC)nc3)c(N3C4CNCC3C4)c12` [Example 1.61, 4-(3,6-Diazabicyclo[3.1.1]heptan-6-yl)-6-fluoro-3-(2-methoxypyrimidin-5-yl)-N-methyl-9H-pyrido[2,3-b]indol-8-amine], the solubility thermodynamic in data set [1] (pH 6.5, aqueous buffer) was 62 µg/mL (≈ 148 µM). Also, the IC50 is 650 nM in the data set with S. aureus (ATCC29213), under 98 nM in data set [2] and 792 nM with A. baumannii (ATCC17978).

With `CNc1cc(F)c(F)c2c1[nH]c1ncc(-c3cnc(C4(C(=O)O)CC4)nc3)c(N(C)C)c12` [Example 2.02, 1-[5-[4-(dimethylamino)-5,6-difluoro-8-(methylamino)-9H-pyrido[2,3-b]indol-3-yl]pyrimidin-2-yl]cyclopropanecarboxylic acid], the solubility thermodynamic in data set [1] (setting [3]) was 160 µg/mL (≈ 365 µM). The IC50 in the data set on S. aureus (ATCC29213) is 474 nM; in data set [2], 391 nM; in the data set with A. baumannii (ATCC17978), under 98 nM.

Consider `CNc1c(F)c(F)cc2c1[nH]c1ncc(-c3cnc(C4(C(=O)O)CC4)nc3)c(N(C)C)c12` [Example 2.03, 1-(5-(4-(dimethylamino)-6,7-difluoro-8-(methylamino)-9H-pyrido[2,3-b]indol-3-yl)pyrimidin-2-yl)cyclopropanecarboxylic acid], for which the solubility thermodynamic in data set [1] (setting [3]) was 410 µg/mL (≈ 935 µM). For the same molecule, the values for the IC50 (in the data set on S. aureus (ATCC29213); in data set [2]; with A. baumannii (ATCC17978)) were 1110 nM, 189 nM and under 98 nM, respectively.

`CNc1cc(F)c(F)c2c1[nH]c1ncc(-c3cnc(OC)nc3)c(N3CC(CN)C(F)(F)C3)c12` (stereo not shown) [Example 3.03, 4-[4-(aminomethyl)-3,3-difluoro-pyrrolidin-1-yl]-5,6-difluoro-3-(2-methoxypyrimidin-5-yl)-N-methyl-9H-pyrido[2,3-b]indol-8-amine]: the solubility thermodynamic in data set [1] (setting [3]) was determined as 125 µg/mL (≈ 263 µM). Further, the 50% inhibitory concentration (IC50) with S. aureus (ATCC29213) was 559 nM; in data set [2] it was under 98 nM; with A. baumannii (ATCC17978), 411 nM.

As to `CNc1cc(F)c(F)c2c1[nH]c1ncc(-c3cncc(C#N)c3)c(N3CC(CN)C(F)(F)C3)c12` (stereo not shown) [Example 3.04, 5-[4-[4-(aminomethyl)-3,3-difluoro-pyrrolidin-1-yl]-5,6-difluoro-8-(methylamino)-9H-pyrido[2,3-b]indol-3-yl]pyridine-3-carbonitrile], in data set [1] (setting [3]), the solubility thermodynamic came to 16 µg/mL (≈ 34.1 µM). Besides, the IC50 in the data set with S. aureus (ATCC29213) was 649 nM; in data set [2] it was under 98 nM; in the data set with A. baumannii (ATCC17978), 485 nM.

Take `CNc1cc(F)cc2c1[nH]c1ncc(-c3cnc(OC)nc3)c(C3(CN)CC3)c12` [Example 4.01, 4-(1-(Aminomethyl)cyclopropyl)-6-fluoro-3-(2-methoxypyrimidin-5-yl)-N-methyl-9H-pyrido[2,3-b]indol-8-amine]: in data set [1] (setting [3]), the solubility thermodynamic was over 575 µg/mL. The IC50 was 631 nM in the data set with S. aureus (ATCC29213), under 98 nM in data set [2] and 847 nM in the data set with A. baumannii (ATCC17978).

For the molecule `CNc1cc(F)c(F)c2c1[nH]c1ncc(-c3cnc(C)nc3)c(N3C[C@H]4C[C@@H]3C[C@H]4N)c12` [GP-6, reference compound], the solubility thermodynamic in data set [1] (setting [3]) was under 1 µg/mL. The IC50 (in the data set with S. aureus (ATCC29213); in data set [2]; in the data set with A. baumannii (ATCC17978)) was under 98 nM in each case.

These data come from patent US20210309657A1, “TRICYCLIC COMPOUNDS FOR THE TREATMENT AND PROPHYLAXIS OF BACTERIAL INFECTION” (Hoffmann-La Roche Inc., priority 2018, published 2021).
